# Results: patent US20210220340A1, “COMPOSITION FOR PREVENTION OR TREATMENT OF NEURODEGENERATIVE DISEASE” (THE ASAN FOUNDATION, priority 2018, published 2021)
# Where a name gives a salt, the structure may show the parent alone. Read-outs that look alike come from different tables or passages of the source.
# Columns and labels:
# mouse astrocytes = test: Lysosome pH change in astrocytes (LysoSensor Green DND-189, acridine orange); format: cell-based; details: amyloid beta-accumulated
# Procedure: For astrocyte culture, first, cerebral cortices (neocortices) were dissociated from murine fetuses (3 weeks old), and the obtained cortical tissue was divided into single cells. Subsequently, the single cells were seeded, and the cultured astrocytes were stored using a culture medium (DMEM 7% FBS+7% HS+100 U/mL penicillin+100 μg/mL […]) in a humidified incubator at 37[…] under a condition of 5% carbon dioxide. After DIV 10-14, cells grown to 80-90% or more confluence were used, and before an experiment, the cells were washed twice with warm MEM and used. New cells were cultured and used each time without passaging.
# FIG. 8A is a set of images that visualize pH changes for 0 to 1 hour in respective groups of mouse astrocytes, which are stained with LysoSensor Green DND-189, and then treated with either amyloid beta (Aβ) or amyloid beta and cilostazol (Aβ+cilo).
# mouse pericytes [1] = test: Amyloid beta aggregation in pericytes treated with cilostazol (confocal microscopy, western blotting); format: cell-based; details: 1 hour (confocal) and 24 hours (western blot)
# Procedure: Each type of cell was cultured under the culture conditions, a cell culture was restored, followed by preparing a particulate fraction in a 50 mM Tris buffer. Proteins obtained from the cell culture developed in a SDS polyacrylamide gel, transferred to an immobilon-P membrane (Millipore, USA), and reacted with antibodies overnight. Next day, western blots were washed, reacted with peroxidase-linked secondary antibodies at room temperature for 1 hour, followed by staining bands with 4-chloro-1-naphthol. From the result of Example 1, PDE3, which is specifically highly expressed in pericytes, is selected as a target material. It was observed how the treatment of cilostazol known as a specific inhibitor of PDE3 affects amyloid beta accumulation. FIG. 5 is a set of confocal microscope images of mouse pericytes which are cultured and then treated with CTL (control), amyloid beta (Aβ) and cilostazol (amyloid beta+cilostazol; +cilo) for 1 hour, respectively. The graph on the right side of FIG. 5 is obtained by observing pericytes treated with CTL (control), amyloid beta (Aβ) and cilostazol (amyloid beta+cilostazol; +cilo) for 1 hour, and measuring the fluorescence intensities thereof. […] The graph on the right side of FIG. 6 is obtained by measuring an oligomer/actin expression level and a monomer/actin expression level in each group.
# all PDE isoforms = test: HTS using all PDE isoforms as targets; format: biochemical; details: for inhibitory efficacy in all PDE isoforms: Example 18 screening, compared with cilostazol; for IC50: across PDE isoforms, FIG. 31
# Procedure: Compounds included in the library of 800 FDA-approved drugs were diluted 1/4 from a concentration of 100 μM and dispensed into each well in 96-well plates, and mixed with a PDE reactant to allow a PDE reaction with the drug for 1 hour at a constant temperature.
# The experiment was carried out in the same manner as used in screening of the FDA-approved drug library. […] Each of the screening library drugs were diluted 1/4 from 100 μM and dispensed into each well in 96-well plates, and mixed with a PDE reactant, followed by allowing a reaction between the drug and PDE for 1 hour for storage. After a stop solution was mixed with a AMP detection agent, the mixture was dispensed at 20 μl per well to allow a reaction for 10 minutes, followed by immediately measuring luminescence, and the experiment was performed according to a protocol provided by the kit used herein.
# The first selection started with PDE3 as a target, and after candidate drugs were selected, all PDE isoforms were tested.
# cathepsin L = test: Lysosomal function activity in astrocytes: degree of hydrolysis of cathepsin L; format: cell-based, mouse; details: mouse astrocytes treated with bafilomycin A1 alone
# Procedure: (§1) Samples stained with enzymatic dyes such as cathepsin B and cathepsin L were administered into the cell culture to allow a reaction for 30 minutes, and changes in activity of lysosomes in cells were confirmed using a confocal microscope.
# (§2) Astrocytes were stained with a fluorescence-tagged lysosomal protein, and the degrees of hydrolysis of cathepsin B and cathepsin L, which are lysosomal proteins, were analyzed.
# (§3) FIG. 21 is a set of time-dependent confocal microscope images of mouse astrocytes, which are treated with bafilomycin A1, which is a vATPase inhibitor, to assess the degree of hydrolysis of cathepsin B (top) and cathepsin L (bottom).
# cathepsin B = test: Lysosomal function activity in astrocytes: degree of hydrolysis of cathepsin B; format: cell-based, mouse; details: mouse astrocytes treated with bafilomycin A1 alone
# Procedure: as §1, §2, §3
# mouse pericytes [2] = test: Lysosome pH in bafilomycin A1-treated pericytes (LysoSensor, confocal microscope); format: cell-based; details: mouse pericytes treated with bafilomycin A1 alone
# Excerpt: A system that can visualize changes in intracellular lysosome pH with LysoSensor, which is a pH-sensitive lysosomal dye, in mouse pericytes using a confocal microscope was established (refer to Example 6) to observe whether amlexanox (AMX) is involved in the pH change of lysosomes in cells.
# FIG. 19 is a set of time-dependent confocal microscope images (left) of mouse pericytes when being treated with Bafilomycin A1, which is a vATPase inhibitor, and then stained with LysoSensor, and quantified data (right) thereof.
# Here, the images on the left side of FIG. 19 are obtained by treating mouse pericytes with bafilomycin A1, which is a vATPase inhibitor, and analyzing the cells using LysoSensor over time by a confocal microscope (top), and by treating the bafilomycin A1-treated mouse pericytes with the finally selected amlexanox (AMX) and analyzing the cells using LysoSensor over time by a confocal microscope (bottom).
compound,measurement,setting,value
O=C1CCc2cc(OCCCCc3nnnn3C3CCCCC3)ccc2N1 [cilostazol],lysosomal function,mouse astrocytes,normalized
same,pH of lysosomes,mouse astrocytes,acidified
same,amount of aggregated amyloid beta,mouse pericytes [1],significantly reduced
CN1CCN(c2ccc3nc(-c4c(N)c5c(F)cccc5[nH]c4=O)[nH]c3c2)CC1 [dovitinib],inhibitory efficacy in all PDE isoforms,all PDE isoforms,high inhibitory efficacy
Oc1cc(O)cc(/C=C/c2ccc(O)c(O)c2)c1 [piceathanol],inhibitory efficacy in all PDE isoforms,all PDE isoforms,high inhibitory efficacy
same,IC50,"all PDE isoforms; read-out: inhibition value of each isoform, lowest",≥ 0.3 nM
same,IC50,"all PDE isoforms; read-out: inhibition value of each isoform, maximum",≤ 5500 nM
Oc1ccc(/C=C/c2cc(O)cc(O)c2)cc1 [resveratrol],inhibitory efficacy in all PDE isoforms,all PDE isoforms,high inhibitory efficacy
Cc1ccc(NC(=O)c2ccc(CN3CCN(C)CC3)cc2)cc1Nc1nc(-c2cccnc2)cs1 [masitinib],inhibitory efficacy in all PDE isoforms,all PDE isoforms,high inhibitory efficacy
O=C(O)c1cccc(-c2noc(-c3ccccc3F)n2)c1 [ataluren],inhibitory efficacy in all PDE isoforms,all PDE isoforms,high inhibitory efficacy
Cc1ccc(NC(=O)c2ccc(CN3CCN(C)CC3)cc2)cc1Nc1nccc(-c2cccnc2)n1 [imatinib mesylate],inhibitory efficacy in all PDE isoforms,all PDE isoforms,high inhibitory efficacy
zafirlukast,inhibitory efficacy in all PDE isoforms,all PDE isoforms,high inhibitory efficacy
Cc1nc(N)sc1-c1ccnc(Nc2ccc(N3CCOCC3)cc2)n1 [CYC116],inhibitory efficacy in all PDE isoforms,all PDE isoforms,high inhibitory efficacy
Cc1nc(-c2ccc(OCC(C)C)c(C#N)c2)sc1C(=O)O [febuxostat],inhibitory efficacy in all PDE isoforms,all PDE isoforms,high inhibitory efficacy
"OCc1ccc(-c2ccc(-c3ccc(CO)s3)o2)s1 [RITA, 5,5′-(2,5-furandiyl)bis-2-thiophenemethanol]",inhibitory efficacy in all PDE isoforms,all PDE isoforms,high inhibitory efficacy
Oc1c(Cl)cc(Cl)c(Cl)c1Cc1c(O)c(Cl)cc(Cl)c1Cl [hexachloropene],inhibitory efficacy in all PDE isoforms,all PDE isoforms,high inhibitory efficacy
COC1=CC(c2cc3ccccc3[nH]2)=N/C1=C\c1[nH]c(C)cc1C [obatoclax mesylate],inhibitory efficacy in all PDE isoforms,all PDE isoforms,high inhibitory efficacy
CO/C1=C\C(C)=C\[C@@H](C)[C@@H](O)[C@@H](C)C/C(C)=C/C=C/[C@H](OC)[C@@H]([C@@H](C)[C@@H](O)[C@H](C)[C@@]2(O)C[C@@H](O)[C@H](C)[C@@H](C(C)C)O2)OC1=O [bafilomycin A1],cathepsin L (lysosomal protein activity),cathepsin L,decreased
same,cathepsin B (lysosomal protein activity),cathepsin B,decreased
same,lysosomal pH,mouse pericytes [2],increased
CCc1ccc(OCc2ccccc2C(=O)Nc2ccc3nc(C)cc(N)c3c2)cc1.Cl [JTC-801],inhibitory efficacy in all PDE isoforms,all PDE isoforms,high inhibitory efficacy
pifithrin,inhibitory efficacy in all PDE isoforms,all PDE isoforms,high inhibitory efficacy
